Series [1] concerns the target T1, Recombinant α1,2-Mannosyltransferase (Saccharomyces cerevisiae, UniProt P27809).
T1 construct: made in house; host or cells: E. coli XL1-Blue, periplasmic fraction
T1 sequence (P27809 31-442): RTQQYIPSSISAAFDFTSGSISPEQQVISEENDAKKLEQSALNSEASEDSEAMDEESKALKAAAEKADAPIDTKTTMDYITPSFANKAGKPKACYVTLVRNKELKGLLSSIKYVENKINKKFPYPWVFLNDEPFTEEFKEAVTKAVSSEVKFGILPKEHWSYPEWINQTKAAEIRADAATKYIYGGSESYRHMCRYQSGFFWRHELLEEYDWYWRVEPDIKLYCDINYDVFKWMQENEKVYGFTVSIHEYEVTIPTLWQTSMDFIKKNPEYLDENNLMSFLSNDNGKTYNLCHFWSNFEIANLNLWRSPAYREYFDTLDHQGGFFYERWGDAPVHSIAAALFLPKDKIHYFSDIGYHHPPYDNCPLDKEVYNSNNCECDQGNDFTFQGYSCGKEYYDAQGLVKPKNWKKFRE
Kind of series: Substrate specificity and enzyme kinetics of the mannosyltransfer reaction (GDP-Man + acceptor). The format is biochemical. To be noted: for Vrelative: calculated as the ratio of Vmax, ManαOMe = 1.0; for substrate (acceptor) quality in words: 150 mM substrate, 3.3 mM GDP-Man. The procedure: GDP-Man (^14C) (10 mM, 10 mL), α-methyl mannopyranoside (500 mM, 10 μL) and the enzyme solution (10 μL) were mixed in a buffer containing 50 mM HEPES (pH 7.2), 0.1 percent Triton and 10 mM MnCl2. The mixture was incubated at 30.0° C. for one hour. The unreacted GDP-mannose was removed by adding QAE-Sephadex (400 μL) to the solution. After the resin was removed by centrifugation, the radioactivity of the solution was counted in 10 mL of scintillation fluid. Controls were carried out by omitting the acceptor or the enzyme. The substrate specificity was determined in a 30 μL assay solution containing 150 mM substrate, 3.3 mM GDP-Man, overproduced α1,2-ManT, 50 mM HEPES (pH 7.2), 0.1 percent Triton and 10 mM MnCl2. The mixture was incubated at 30° C. for 1 hour and the formation of product was determined by the radioactivity assay. Initial velocities were measured as described in the enzyme assay at various concentrations of acceptors for kinetic studies. From the Lineweaver-Burk plots of the data, Km and Vmax were determined.

The test system of series [2] is native α1,2-mannosyltransferase. To be noted: native enzyme, literature value for comparison; cited from earlier work.
Series [3] in a line: Enzyme stability study. Format: physicochemical. Conditions: after four days at 20° C. in 100 mM Tris-HCl, 5 mM MgCl2 buffer, pH 7.4. The procedure: The enzyme was incubated at room temperature in 100 mM Tris-HCl buffer, 5 mM MgCl2, pH 7.4, containing 0.5 mM dithiothreitol. At different time intervals, 10 μL aliquots were taken and assayed for mannosyltransferase activity as described above.

Series [4] in a line: Organic solvent effect study on the mannosyltransfer reaction. Format: biochemical. How it is done:
GDP-Man (^14C) (10 mM, 10 μL) and methyl mannopyranoside (500 mM, 10 μL) were mixed with a certain volume of an organic solvent and H2O to achieve the desired organic solvent concentration. The enzyme (10 μL) was then added to the mixture. The solution was incubated at 30.0° C. for 1 hour. The enzyme activity was measured as described in the enzyme assay section.

Series [5] can be described thus: α1,2-Mannosyltransferase activity assay. The format is biochemical. Conditions: after Superose and Mono Q FPLC purification; one unit transfers 1.0 μmol mannose per minute at 30° C. How it is done: GDP-Man (^14C) (10 mM, 10 mL), α-methyl mannopyranoside (500 mM, 10 μL) and the enzyme solution (10 μL) were mixed in a buffer containing 50 mM HEPES (pH 7.2), 0.1 percent Triton and 10 mM MnCl2. The mixture was incubated at 30.0° C. for one hour. The unreacted GDP-mannose was removed by adding QAE-Sephadex (400 μL) to the solution. After the resin was removed by centrifugation, the radioactivity of the solution was counted in 10 mL of scintillation fluid. Controls were carried out by omitting the acceptor or the enzyme.

Setting [6] is: acceptor with GDP-Man, Lineweaver-Burk plots, 30° C., pH 7.2, read-out: Km (acceptor).
The mark [7] stands for this setting: acceptor substrate of recombinant enzyme, read-out: Km value.

Results on 20 molecules are retold here after US7018824B2, “Mannosyl transfer with regeneration of GDP-mannose” (The Scripps Research Institute, priority 1993, dated 2006).

Where two headings read alike, the source gives them in different places. Peptide text beside a SMILES is read from it. * marks the point of attachment. X1 = OCC1OC(*)C(O)C(O)C1O; Cbz = O=C(OCc1ccccc1)* Bounds are passed on as bounds.

In the case of `COC(=O)C(NC(=O)C(NC(=O)OCc1ccccc1)C(C)OC1OC(CO)C(O)C(O)C1OC1OC(CO)C(O)C(O)C1O)C(C)C` (stereo not shown) [Compound 11, Cbz-Thr(αManα1,2Man)-Val-OMe], the Michaelis-Menten constant (Km) (commonly the substrate concentration at which the rate is half of its maximum) in series [1] (setting [6]) was 26 mM. Moreover, the Vrelative in series [1] (acceptor with GDP-Man) is listed as 0.17.
Take `O=C[C@@H](O)[C@@H](O)[C@H](O)[C@H](O)CO` [Compound 2, mannose]: the “Km (acceptor)” value in series [1] (acceptor with GDP-Man, Lineweaver-Burk plots, 30° C., pH 7.2) is 193 mMO. Besides, the Vrelative in series [1] (acceptor with GDP-Man) was 0.46. For the same molecule, the Km in series [2] was 100 mM.
In the case of `O=[N+]([O-])c1ccc(O[C@H]2O[C@H](CO)[C@@H](O)[C@H](O)[C@@H]2O)cc1` [Compound 13, p-nitrophenyl α-mannopyranoside, reference compound], the Vrelative in series [1] (acceptor with GDP-Man) is 0.00. The “substrate (acceptor) quality in words” value in series [1] (recombinant α1,2-ManT) was “not substrates”.
As for `CO[C@H]1O[C@H](CN=[N+]=[N-])[C@@H](O)[C@H](O)[C@@H]1O` [Compound 5, 6-Azido-6-deoxy-ManαOMe], the Vrelative in series [1] (acceptor with GDP-Man) is 0.02. The “substrate (acceptor) quality in words” value in series [1] (recombinant α1,2-ManT) is on record as “poor substrates”.
Turning to `O=C[C@@H](O)[C@H](O)[C@@H](O)[C@H](O)CO` [D-idose, reference compound], the “substrate (acceptor) quality in words” value in series [1] (recombinant α1,2-ManT) is “not substrates”.
Turning to `CO[C@H]1O[C@H](CO)[C@@H](O)[C@H](O)[C@@H]1O` [Compound 1, α-methylmannopyranoside, reference compound], the Km in series [1] (setting [7]) and in series [1] (setting [6]) was 57 mM each time. Moreover, the Vrelative in series [1] (acceptor with GDP-Man) is given as 1.0.
`CO[C@H]1O[C@H](CO)[C@@H](O)[C@H](O)[C@@H]1O[C@H]1O[C@H](CO)[C@@H](O)[C@H](O)[C@@H]1O` [Compound 3, Manα1,2ManαOMe]: the Km in series [1] (setting [7]) and in series [1] (setting [6]) was 28 mM throughout. In addition, the Vrelative in series [1] (acceptor with GDP-Man) is listed as 0.62.
On to `O=C[C@@H](O)[C@@H](O)[C@H](O)CO` [D-lyxose, reference compound], for which the “substrate (acceptor) quality in words” value in series [1] (recombinant α1,2-ManT) is “not substrates”.
Consider `CC(NC(=O)CNC(=O)C(NC(=O)C(NC(=O)OCc1ccccc1)C(C)OC1OC(CO)C(O)C(O)C1O)C(C)C)C(N)=O` (stereo not drawn) [Compound 9, Cbz-Thr(α-Man)-Val-Gly-Ala-NH2] (Cbz-T(X1)VGA-NH2; configuration not given here), for which the Vrelative in series [1] (acceptor with GDP-Man) is listed as 0.55. Further, in series [1] (recombinant α1,2-ManT), the “substrate (acceptor) quality in words” value is listed as “good substrates”.
As for `O=C[C@@H](O)[C@@H](O)[C@@H](O)[C@H](O)CO` [D-talose, reference compound], the “substrate (acceptor) quality in words” value in series [1] (recombinant α1,2-ManT) is on record as “not substrates”.
For `O=C[C@@H](O)[C@H](O)[C@H](O)CO` [D-arabinose, reference compound], the “substrate (acceptor) quality in words” value in series [1] (recombinant α1,2-ManT) is on record as “not substrates”.
As for `COC(=O)C(NC(=O)C(N)C(C)OC1OC(CO)C(O)C(O)C1O)C(C)C` (stereo not drawn) [Compound 8, Thr(α-Man)-Val-OMe], in series [1] (acceptor with GDP-Man), the Vrelative is listed as 0.68. For the same molecule, the “substrate (acceptor) quality in words” value in series [1] (recombinant α1,2-ManT) was “good substrates”.
As for `CO[C@H]1O[C@H](COS(=O)(=O)c2ccc(C)cc2)[C@@H](O)[C@H](O)[C@@H]1O` [Compound 12, 6-Tosyl-ManαOMe], the Vrelative in series [1] (acceptor with GDP-Man) was 0.00.
As for `CO[C@H]1O[C@H](CN)[C@@H](O)[C@H](O)[C@@H]1O` [Compound 6, 6-Amino-6-deoxy-ManαOMe], in series [1] (acceptor with GDP-Man), the Vrelative is given as 0.07. In addition, the “substrate (acceptor) quality in words” value in series [1] (recombinant α1,2-ManT) is “poor substrates”.
As for `OC[C@H]1NC[C@@H](O)[C@@H](O)[C@@H]1O` [1-deoxymannojirimycin, reference compound], in series [1] (recombinant α1,2-ManT), the “inhibitor of α1,2-ManT in words” value is reported as “nor an inhibitor” and the “substrate (acceptor) quality in words” value was “neither a substrate”.
Turning to `O=C[C@@H](O)[C@H](O)[C@H](O)[C@H](O)CO` [D-altrose, reference compound], in series [1] (recombinant α1,2-ManT), the “substrate (acceptor) quality in words” value is “not substrates”.
“Boc-Try-Thr(α-Man)-Val-OMe [Compound 10]”: the Km in series [1] (setting [7]) and in series [1] (setting [6]) was 0.7 mM each time. Besides, in series [1] (acceptor with GDP-Man), the Vrelative is 0.35. Moreover, in series [1] (ratio of Km values), the “Km, times less than that of Compound 7” value amounted to 10 times. Further, in series [1] (ratio of Km values), the “Km, times smaller than that of ManαOMe (Compound 1)” value is 80 times.
Turning to Cbz-Thr(α-Man)-Val-OMe [Compound 7], the Km in series [1] (setting [6]) is 7.8 mM. The Vrelative in series [1] (acceptor with GDP-Man) is given as 0.71. Moreover, the “substrate (acceptor) quality in words” value in series [1] (recombinant α1,2-ManT) is given as “comparable with ManαOMe as an acceptor”.
With `CO[C@H]1O[C@H](C)[C@@H](O)[C@H](O)[C@@H]1O` [Compound 4, Methyl 6-Deoxy-α-D-mannopyranoside], the Vrelative in series [1] (acceptor with GDP-Man) was 0.06. In addition, the “substrate (acceptor) quality in words” value in series [1] (recombinant α1,2-ManT) was “poor substrates”.

B1: recombinant α1,2-ManT: water-dispersible recombinant α1,2-mannosyltransferase catalytic domain, residues about 31-442 of the S. cerevisiae enzyme, expressed in E. coli (protein)
chain: T1 sequence (P27809 31-442)
Consider B1, for which the activity retained result in series [3] was “more than 90%”. For the same molecule, the remaining activity result is recorded as “about 80%” in series [4] (10-percent DMF-buffer solution) and “about 50%” in series [4] (10 percent acetonitrile-buffer solution). The molecule also had a loss of activity in series [4] (DMF or acetonitrile increased to 20 percent) of 95%. Moreover, the tolerated acetone concentration in series [4] (acetone-buffer solution) is given as not above 20%. The tolerated methanol concentration entry in series [4] (methanol-buffer solution) is “up to 30%”. In addition, the specific activity result in series [5] is “about 1 unit/mg”.
